Test results as given in patent US20030198617A1, “Pharmaceutical tryptophan containing dipeptide compositions and methods of use thereof” (priority 1993, published 2003).
“Also recorded” adds a separate entry of the source. Read-outs that look alike come from different tables or passages of the source.

Columns and labels:
Type in all cases: in vivo, human
[1] = Bone-marrow compromise (transplant or radiation exposure)
[2] = Sinus disease patients (Examples 14, 63); settings: 3-10 days
Description: The decrease of treatment duration up to 1.7 times compared to controls.

[3] = Antibiotic-treated patients with unfavorable allergological history
Experimental: Ile-Trp is applied in patients treated with antibiotics for various indications who have unfavorable allergological history. Ile-Trp is administered IM or intranasally single daily at 100 μg for 5-10 days.
Control group comprised 43 patients.

[4] = Patients subjected to skin grafting
Experimental: Ile-Trp is administered to patients subjected to skin grafting. Ile-Trp is administered IM or intranasally single daily at 50-100 μg for 5 days.
The control group comprised 27 patients. […] In control group the manifestations of rejection were determined in 8 patients.

[5] = Eye problems, with conventional treatment
Experimental: Patients with various eye problems are treated by conventional methods, with one group receiving Ile-Trp in addition to the conventional treatment.

flu = settings: 3 days, with anti-flu vaccination
Bone fractures = test: Bone fractures
Experimental: Ile-Trp is applied to patients with bone fractures of various origin, type and localization. Ile-Trp is administered intramuscularly or intranasally single daily at […] for 10 days.
The control group comprised 28 patients.

[6] = Pregnant women (Examples 34, 87)
Experimental: Ile-Trp is administered to pregnant women. The route of administration is IM or intranasally 100 μg daily for 5-10 days.
The route of administration is IM or intranasally 100 μg daily for 5-10 days. […] It was also noted that there was a decrease in fetal hypoxia.

Wounds of various origin = test: Wounds of various origin
Experimental: Ile-Trp is used in patients with wounds of various origin, type and localization. Ile-Trp is administered IM or topically single daily at 100 μg for 10 days.
The control group comprised 24 patients.

[7] = Massive hemotransfusions in post-operative period
Experimental: Patients exposed to massive hemotransfusions during post-operative period are treated with Ile-Trp. The peptide is administered starting from 4-6 day of post-operative period single daily IM or intranasally in doses 100 μg for 5 days.

Pyelonephritis = test: Pyelonephritis
Description: The normal course of delivery in those women treated with IM862 was without complications.

Herpes Zoster = Herpes Zoster patients, with interferon; settings: for clinical effect: 100 μg, 10 days
Experimental: Patients with Herpes Zoster are treated with Ile-Trp in combination with conventional interferon treatment and some control patients with interferon alone. […] There is noted prevention of relapses, and some healing occurred earlier than control groups. Immunological indices correlates with clinical outcome.
There was noted prevention of relapses, and healing occurred on the average 40% earlier than control groups. Immunological indices correlated with clinical outcome.

[8] = system: antibiotic-resistant staphylococci; test: Chronic skin diseases caused by antibiotic-resistant staphylococci
Experimental: Ile-Trp is administered to patients suffering from chronic skin diseases caused by antibiotic-resistant staphylococci. Ile-Trp is administered IM in single daily doses of 100 μg for 5 days and intranasally to a different group in the same daily and total dose. In the patients with signs of secondary T-immunodeficiency the staphylococci antibiotic sensitivity to one, few or all antibiotics is increased which then permits one to choose for each patient an effective antibiotic with exclusively high activity against a given pathogen.
47 patients with the same pathology but not treated with the immunomodulator were the control group. […] The differences between these methods of application were not noticed. In all the patients with signs of secondary T-immunodeficiency the staphylococci antibiotic-sensitivity to one, few or all antibiotics has been increased sharply (more than 100-fold) what permitted further to choose for each patient the antibiotic with exclusively high activity against pathogen. As a whole, within the examined group of patients the reliable decease of MIC of all studied antibiotics has been marked. The proposed treatment regiment permitted to obtain the complete recovery in 27 patients, significant improvement—in 8 patients and moderate improvement—in 1 patient.

Psoriasis patients = settings: 10 days
Experimental: Patients with psoriasis are treated with Ile-Trp and some patients are used as controls.
All patients had at a least 5 year history of […] treatment.

Lymphangitis = test: Lymphangitis
Cutaneous burns = test: Cutaneous burns
Experimental: Patients with cutaneous burns are treated with Ile-Trp either IM or intranasally.

herpetic lesions = test: Recurrent herpetic lesions; settings: for recurrence of herpetic lesions: IM or intranasally
Chronic osteomyelitis = test: Chronic osteomyelitis
Experimental: Ile-Trp is prescribed to patients with chronic osteomyelitis of various etiology and localization. Ile-Trp is administered IM or intranasally single daily at 100 μg for 10 days.
The control group comprised 88 patients.

leprosy = test: Leprosy (Hansen's disease)
[9] = IM862 100 μg IM or intranasally

With Ile-Trp the clinical effect ([1]; Ile-Trp IM or intranasally) was “improved immune parameters”, the clinical effect ([2]; Ile-Trp 1 μg/kg) was “normalization of nasal breathing” and the “allergic reactions to antibiotics” value ([3]; Ile-Trp 100 μg 5-10 days) was “prevents the arising of allergic reactions”. The “infectious complications and graft rejection” value ([4]; Ile-Trp 50-100 μg 5 days) was “prevents the arising of infections complications and graft rejection”, the clinical effect ([5]; Ile-Trp intra ocularly 18 μg 5 days or drops) was “more rapid arresting of the inflammatory process” and the “sickness rate for 12 months” value (flu; Ile-Trp 50 μg) was “significant decrease of sickness rate”. For the same substance, the consolidation of fractures (Bone fractures; Ile-Trp, 10 days) was “accelerates essentially”, the clinical effect ([6]; Ile-Trp 100 μg daily 5-10 days) was “resolution of weakness, dizziness, and increased appetite” and the wound healing (Wounds of various origin; Ile-Trp) was “speeds up; also recorded: accelerates wound healing”. The alloblood rejection ([7]; Ile-Trp 100 μg 5 days) was “do not show clinical manifestation of alloblood rejection”, the clinical effect (Pyelonephritis; Ile-Trp 100 μg 5-10 days with conventional therapy) was “reduction of fever” and the clinical effect (Herpes Zoster; Ile-Trp with interferon) was “accelerated regression of foci of herpetic infection”. The staphylococci antibiotic sensitivity ([8]; Ile-Trp 100 μg 5 days, patients with secondary T-immunodeficiency) was “is increased”, the clinical effect (Psoriasis patients; Ile-Trp 100 μg IM or intranasally) was “improvement in most of the patients, and total recovery in some of the patients” and the clinical effect (Lymphangitis; Ile-Trp 100 μg) was “controls the advance of lymphangitis”. For the same substance, the clinical effect (Cutaneous burns; Ile-Trp IM or intranasally) was “Accelerated wound healing, diminished frequency of infections, and less eschar”, the “recurrence of herpetic lesions” value (herpetic lesions; Ile-Trp topically) was “marked reduction of recurrence of herpetic lesions” and the clinical effect (Chronic osteomyelitis; Ile-Trp 100 μg 10 days) was “pronounced positive influence on clinical course”. For the same substance, the clinical effect (leprosy; Ile-Trp 100 μg 5 days with conventional therapy) was “resolution of the lesions”.
For Glu-Trp [IM862], the clinical effect ([1]; IM862 IM or intranasally) was “improved immune parameters”, the “decrease of treatment duration compared to controls” value ([2]; IM862 1 μg/kg) was “up to 1.7 times” and the clinical effect ([2]; IM862 1 μg/kg, 51 patients) was “normalization of nasal breathing”. For the same substance, the “allergic reactions to antibiotics” value ([3]; IM862 100 μg 5-10 days, 76 patients, majority of cases) was “prevented the arising of allergic reactions”, the “infectious complications and graft rejection” value ([4]; IM862 50-100 μg 5 days, all 17 patients) was “prevented the arising of infections complications and graft rejection” and the clinical effect ([5]; IM862 intra ocularly 18 μg 5 days or drops, 41 patients) was “more rapid arresting of the inflammatory process”. For the same substance, the “sickness rate for 12 months” value (flu; IM862 50 μg, 268 persons) was “significant decrease of sickness rate”, the consolidation of fractures (Bone fractures; IM862, 10 days, 44 patients) was “accelerated essentially” and the clinical effect ([6]; IM862 100 μg daily 5-10 days, 34 women) was “resolution of weakness, dizziness, and increased appetite”. For the same substance, the wound healing (Wounds of various origin; IM862) was “speeded up; also recorded: accelerates wound healing”, the alloblood rejection ([7]; IM862 100 μg 5 days, 76 patients) was “None of studies patients showed clinical manifestation of alloblood rejection” and the clinical effect (Pyelonephritis; IM862 100 μg 5-10 days with conventional therapy, 27 patients) was “reduction of fever”. For the same substance, the clinical effect (Herpes Zoster; IM862 with interferon, 37 patients) was “accelerated regression of foci of herpetic infection”, the “healing earlier than control groups” value (Herpes Zoster; IM862 with interferon, on the average) was 40% and the “increase of staphylococci antibiotic-sensitivity” value ([8]; IM862 100 μg 5 days, patients with secondary T-immunodeficiency) was “more than 100 fold”. The “complete recovery, number of patients” value ([8]; IM862 treatment regimen) was 27 patients, the “moderate improvement, number of patients” value ([8]; IM862 treatment regimen) was 1 patient and the “significant improvement, number of patients” value ([8]; IM862 treatment regimen) was 8 patients. The “significant improvement, share of patients” value (Psoriasis patients; [9]) was 60%, the “total recovery, share of patients” value (Psoriasis patients; [9]) was 33% and the “improvement, share of patients” value (Psoriasis patients; IM862 100 μg IM or intranasally, 30 patients) was 7%. The clinical effect (Lymphangitis; IM862 100 μg) was “controls the advance of lymphangitis”, the clinical effect (Cutaneous burns; IM862 IM or intranasally, 23 patients) was “Accelerated wound healing, diminished frequency of infections, and less eschar” and the “outbreaks per year after treatment” value (herpetic lesions; IM862 in combination with interferon, 7-10 outbreaks per year before) was “less than one outbreak per year”. The “recurrence of herpetic lesions” value (herpetic lesions; IM862 topically) was “marked reduction of recurrence of herpetic lesions”, the clinical effect (Chronic osteomyelitis; IM862 100 μg 10 days, 176 patients) was “pronounced positive influence on clinical course” and the clinical effect (leprosy; IM862 100 μg 5 days with conventional therapy, 45 patients) was “resolution of the lesions”.
